# Experiments:
# MCF7 cells = format: cell-based
# PBMC = format: cell-based
substance,measurement,setting,value
SLO,dose dependence of change in Fc,MCF7 cells,"the higher the dose, the bigger the change in the Fc"
same,recovered Fc versus native Fc,MCF7 cells,increases higher than the native Fc
same,recovered Fc versus native Fc,PBMC,drops to a lower value than the native Fc
